# Results published in patent US20160281089A1, “PREVENTION OF VIRAL INFECTIVITY” (priority 2005, published 2016).
# Columns and labels:
# [1] = target: T1, RNase H activity of HIV RT/RNaseH (Human immunodeficiency virus type 1 group M subtype B, UniProt P04585); set-up: the HIV RT/RNase H is a heterodimer of p66 and p51 with and without RNase H; endogenous in cells; host or cells: permeabilized HIV virions (virion-associated enzyme); panel B has added recombinant RT/RNaseH at 0.05 units/µl; settings: previously described; cited from earlier work
# [2] = target: T1, RNase H activity of HIV RT/RNaseH; test: Permeabilized HIV virions with ODN A and Illimaquinone, viral RNA degradation by real-time PCR; settings: 150 μM Illimaquinone, 50 nM ODN A, 0.1% NP-40 permeabilized virions, 30 min 37° C., without added RT/RNaseH
# HIV virions [3] = test: ODN-mediated cleavage of viral RNA in intact HIV virions (real-time PCR, RT-PCR, agarose gel); type: biochemical; settings: 0.5 μM ODN, intact HIV virions, RPMI medium, 6 hours
# HIV virions [4] = test: Infectivity of ODN-pre-incubated HIV virions in C81-66/45 cells; type: cell-based; settings: for binding/uptake of pre-treated virions by host cells: pre-incubation 4 hours, HIV RNA in infected cells 1 hour post-infection
# Experimental: As a next step we investigated the antiviral effect of ODNs by testing the infectivity of treated virions in cell culture studies. We used ODN A, ODN T, as PPT and ODN CO. 2×10^5 C81-66/45 cells were infected with virions pre-incubated with different ODNs at 0.01 MOI for 1, 2 or 4 hours prior to infection. RNA was extracted from infected cells and HIV replication was analysed by real-time PCR 3 days post-infection.
# To test the specificity of suppression of viral replication, the effect of ODN A on the infectivity of virions was compared with control ODNs. Virions were pre-treated with the ODNs and HIV replication in infected cells was analysed by real-time PCR, 5 days (FIG. 6A) or 20 days post-infection (FIG. 6B) and by measuring p24 production in the supernatant of the infected cells (FIG. 6C).
# (A) HIV virions were incubated with 0.5 μM of ODNs for 1, 2 or 4 hours. C81-66/45 cells were infected with pre-incubated virions, at 0.01 MOI. RNA was extracted from infected cells and HIV replication was analysed by real-time PCR, 3 days post-infection (p.i.).
# (B) The same experiment as in (A) was performed with ODN T, ODN CO, asPPT and ODN A pre-treated virions.
# (D) C81-66145 cells were infected with virions pre-incubated with 0.5 or 5 μM of ODNs for 4 h, at an MOI of 1. RNA was extracted from infected cells and HIV replication was analysed by real-time PCR, 3 days post-infection.
# (E) C81-66/45 cells were infected with virions pre-incubated with ODN A and ODN Sc for 4 h, at an MOI of 0.01. RNA was extracted from infected cells and HIV replication was analysed by real-time PCR, 1 h and 24 h post-infection. (F) The same experiment as in (E) was performed except for using ODN T, ODN B and ODN A, 1 hour post-infection.
# C81-66/45 cells were infected with virions pre-incubated with ODN A, ODN T, ODN CO or as PPT for 4 h, at MOI of 0.01. RNA was extracted from infected cells and HIV replication was analysed by real-time PCR, 5 days p.i. (A), and 20 days p.i. (B); by measuring p24 production in the medium of the infected cells (C) or by RT-PCR, 11 days p.i. (D).
# SFFV = test: NIH 3T3 cells infected with ODN-pretreated SFFV; type: cell-based; settings: three days post-infection, real-time RT-PCR
# From the text: As next step we investigated the antiviral effect of ODNs by testing pre-treated virions for residual infectivity as has been described before for HIV particles. SFFV particles were pretreated with ODN M or its variants and used to infect NIH 3T3 cells. After three days RNA was extracted from infected cells and from the supernatants and SFFV was quantified by real-time RT-PCR and analysis of amplification products (FIG. 9b).
# b. NIH 3T3 cells were infected with SFFV pretreated with various ODNs. After three days the cells and supernatants were harvested and analyzed for SFFV RNA levels by quantitative real time RT-PCR (top) and RT-PCR (bottom) using GAPDH for comparison.
compound,measurement,setting,value
C=C1CCC[C@H]2[C@](C)(CC3=C(O)C(=O)C=C(OC)C3=O)[C@@H](C)CC[C@]12C [Illimaquinone],inhibition of RNase H activity of HIV RT/RNaseH,[1],specifically inhibit the RNase H activity
same,ODN A-mediated viral RNA cleavage in presence of Illimaquinone,[2],failed to induce cleavage
"AAAAGAAAAGGGGGGACTGGTTGGGTTTTCCCTTCCAGTCCCCCCTTTTCTTTT (chemistry not given here) [ODN T, passenger strand fully complementary to the antisense strand]","amount of undigested viral RNA (real-time PCR, primers covering PPT region)",HIV virions [3],less efficient cleavage of the viral RNA
same,binding/uptake of pre-treated virions by host cells,HIV virions [4],uptake similar to ODN A
same,HIV replication in infected cells (real-time PCR),"HIV virions [4]; virions pre-incubated 4 hours with 0.5 μM ODN, 0.01 MOI, 3 days post-infection",low but detectable levels
"TCTTTTTGCGCGCTTTGTTTGTTTTTTCTTTCATTCCCCCCTTTTTCT (chemistry not given here) [ODN CG, ODN M variant with a triple nucleotide change in the second strand (SFFV tests)]","amount of undigested viral RNA (real-time PCR, primers covering PPT region)",HIV virions [3],antiviral activity similar to ODN A
same,SFFV RNA in infected cells and supernatant,SFFV,clearly less efficient
"TCTTTTTGGGGGGAATGTTTGTTTTTTCTTTCATTCCCCCCTTTTTCT (DNA, backbone and methylation of C not given here) [ODN S, ODN M variant, two nucleotide changes in the second strand]",SFFV RNA in infected cells and supernatant,SFFV,clearly less efficient
"TTTCTTTTGGGGGGTTTGGTTGGGTTTTCCCTTCCAGTCCCCCCTTTTCTTT (chemistry not given here) [ODN B, one nucleotide removed from both 5′ and 3′ ends of ODN A]","amount of undigested viral RNA (real-time PCR, primers covering PPT region)",HIV virions [3],less efficient cleavage of the viral RNA
same,binding/uptake of pre-treated virions by host cells,HIV virions [4],uptake similar to ODN A
"TTTGGGGGGTTCTTCCTCCTTTCCTTTTTCGCCCGTCCGTTGCGTTGATTTTTT (chemistry not given here) [ODN Sc, reference compound]","amount of undigested viral RNA (real-time PCR, primers covering PPT region)",HIV virions [3],less efficient cleavage of the viral RNA
"TTTTCTTTTGCGCGCTTTGGTTGGGTTTTCCCTTCCAGTCCCCCCTTTTCTTTT (chemistry not given here) [ODN NT, triple substitution in the passenger strand at site complementary to CCCCCC]","amount of undigested viral RNA (real-time PCR, primers covering PPT region)",HIV virions [3],less efficient cleavage of the viral RNA
"TTTTCTTTTGGGGGGACTGGTTGGGTTTTCCCTTCCAGTCCCCCCTTTTCTTTT (chemistry not given here) [ODN H, triple substitution in the passenger strand]","amount of undigested viral RNA (real-time PCR, primers covering PPT region)",HIV virions [3],less efficient cleavage of the viral RNA
